Results as given in US6545033B1, “Fused 1-(2,6-dichloro-4-trifluoromethylphenyl)-pyrazoles, the synthesis thereof and the use thereof as pesticides” (3-Dimensional Pharmaceuticals, Inc., priority 1999, dated 2003).

How the values were obtained:
Housefly GABA receptors = molecular target: T1, Housefly GABA receptors (Musca domestica, UniProt Q75NA5); experiment: In vitro assay of binding to housefly GABA receptors (3H-EBOB displacement, housefly neuronal membranes); settings: housefly neuronal membranes
T1 sequence (Q75NA5 30-576): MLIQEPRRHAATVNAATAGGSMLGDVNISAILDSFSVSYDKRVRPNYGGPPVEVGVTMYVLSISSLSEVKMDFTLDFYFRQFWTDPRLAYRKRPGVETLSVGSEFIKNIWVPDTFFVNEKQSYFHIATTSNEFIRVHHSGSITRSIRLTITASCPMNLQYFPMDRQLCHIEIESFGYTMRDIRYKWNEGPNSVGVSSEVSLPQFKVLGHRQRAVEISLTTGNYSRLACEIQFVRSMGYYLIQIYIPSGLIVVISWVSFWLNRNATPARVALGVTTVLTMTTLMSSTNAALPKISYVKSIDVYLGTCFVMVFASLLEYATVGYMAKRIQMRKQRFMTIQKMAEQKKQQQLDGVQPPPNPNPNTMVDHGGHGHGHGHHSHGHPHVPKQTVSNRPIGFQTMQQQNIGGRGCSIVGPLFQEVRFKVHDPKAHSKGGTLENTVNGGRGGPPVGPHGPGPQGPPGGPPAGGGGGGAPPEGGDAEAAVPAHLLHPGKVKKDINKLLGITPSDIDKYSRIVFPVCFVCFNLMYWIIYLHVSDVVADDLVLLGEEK
Protocol: Newly emerged houseflies (Musca domestica, available from Rincon-Vitova Insectaries, Inc., Ventura, Calif.) were sedated with carbon dioxide gas, collected in 50 mL polypropylene conical tubes, and immediately frozen by submersion in liquid nitrogen. Unless specified, all of the following work was performed at 0-4° C. After removal from liquid nitrogen, the tubes of frozen houseflies were shaken vigorously by hand to decapitate the houseflies. […] Contaminating wings were removed by holding a vacuum nozzle approximately 4 cm above the heads, and contaminating legs were separated from the heads by passage through a #15 mesh screen. All remaining debris were removed from the pool of heads using forceps. The purified heads were collected in 50 mL polypropylene conical tubes and stored in liquid nitrogen until processed further.
About 13 g of purified housefly heads were suspended in about 65 mL of 10% sucrose buffer (10% sucrose (w/w) in 10 mM Tris, pH 7.5). The heads were homogenized for about 1 minute, using a Tissumizer™ homogenizer equipped with a SDT-100EN probe (available from Tekmar-Dohrmann, Cincinnati, Ohio) running at 70% of its maximum speed. The extract was further homogenized by about 5 passes through a 40 mL Dounce tissue grinder. The extract was then centrifuged at about 500×g for about 5 minutes to pellet large debris. The supernatant was collected; the pellet was washed with an additional 65 mL of 10% sucrose buffer and centrifuged at 500×g for about 5 minutes. The second supernatant was collected and combined with the first supernatant, and the pool was filtered through a 100μ CellMicroSieve™ mesh to remove residual debris (available from BioDesign of New York, Carmel, N.Y.).
Neuronal membranes containing active GABA receptors were collected via sucrose density centrifugation by the following method. About 8 mL of 35% sucrose buffer (35% sucrose (w/w) in 10 mM Tris, pH 7.5), were dispensed into each of six 38 mL ultracentrifuge tubes. These layers were overlaid with about 8 mL of 20% sucrose buffer (20% sucrose (w/w) in 10 mM Tris, pH 7.5), and finally overlaid with about 20 mL of filtered extract supernatant. The tubes were centrifuged at about 120,000×g for about 100 min at 4° C. After centrifugation, the 10% sucrose layer and most of the 20% sucrose layer were removed by aspiration. The membranes at the interface of the 20% sucrose and 35% sucrose layers were collected, pooled, diluted with 10% sucrose buffer, and centrifuged at about 120,000×g for about 40 min at 4° C. After centrifugation, the supernatant was discarded, and the pellets resuspended in about 6.5 mL of assay buffer (10 mM phosphate, 300 mM NaCl, pH 7.5) using a 10 mL Potter-Elvehjem tissue grinder with a Teflon® pestle. Protein concentration was determined by the Bio-Rad Protein Assay (available from Bio-Rad Laboratories, Hercules, Calif.) using bovine serum albumin as a standard. The membranes were aliquoted and stored in liquid nitrogen for up to 2 months before use.
Housefly neuronal membranes were prepared as described above from housefly heads. Test compounds were dissolved in dimethylsulfoxide (DMSO) at concentrations ranging from about 2 nM to about 100 mM. About 1 μL of a dissolved test compound was dispensed into a well of a 96-well polystyrene plate. About 100 μL of ice cold assay buffer (10 mM phosphate, 300 mM NaCl, pH 7.5) containing 5.2 nM 4′-Ethynyl-4-n-[2,3-^3H2]propylbicycloorthobenzoate (^3H-EBOB, 38 Ci/mmol, available from NEN Life Science Products, Boston, Mass.) was added to the well, followed by about 100 μL of ice cold assay buffer containing about 0.5-1.0 mg/mL housefly neuronal membranes. Control wells were prepared the same way except that the housefly neuronal membranes were omitted from the “negative” wells, and the test compounds were omitted from the “positive” wells. […]

[1] = system: houseflies (Musca domestica); experiment: In vivo housefly contact assay; settings: contact in coated glass test tube, about 24 hours; mM = concentration of the DMSO solution, about 1 μL applied
Protocol: This example describes an in vivo assay to screen compounds for their ability to kill houseflies via contact. Newly emerged houseflies (Musca domestica, available from Rincon-Vitova Insectaries, Inc., Ventura, Calif.) were sedated with carbon dioxide gas, collected in 50 mL polypropylene conical tubes containing filter paper saturated with 10% (w/w) sucrose in water, and allowed to feed at room temperature for about 2-4 hours. Test compounds were dissolved as in dimethylsulfoxide (DMSO) at concentrations ranging from about 0.05 mM to about 100 mM. About 1 μL of dissolved test compound and about 100 μL of isopropanol were dispensed into the bottom of a 9 mL screw-top glass test tube. Positive control test tubes were prepared in the same manner except that no test compounds were dissolved in the DMSO. Each test tube was rolled to coat the sides with the chemical solution, and allowed to air dry 24-48 hours. About 20 houseflies were sedated by refrigeration at 0-4° C. and transferred to each test tube. Each test tube was sealed with organdy cloth secured by an open top screw cap and laid horizontally in the dark. After about 24 hours, the healthy, moribund, and dead houseflies in each test tube were counted. The percentage of dead houseflies in each test tube was then calculated using the formula M=100(D−(FC/100))/(F−(FC/100)), in which M is the percentage of dead houseflies due to the addition of the test compound, D is the number of dead houseflies in the test tube, F is the total number of houseflies in the test tube, and C is the percentage of dead houseflies in the control test tubes.

[2] = system: cat fleas (Ctenocephalides felis), CO Fleas; experiment: In vivo cat flea contact assay, CO fleas; settings: Ctenocephalides felis, topical; contact with treated filter disk in vial, about 24-30 hours; mM = concentration of the DMSO solution, about 1 μL applied; read-out: LD50 (mM), CO Fleas
Protocol: (§1) This example describes an in vivo assay to screen compounds for their ability to kill cat fleas via contact.
(§2) Test compounds were dissolved in dimethylsulfoxide (DMSO) at concentrations ranging from about 0.05 mM to about 100 mM. About 1 μL of dissolved test compound was dispensed onto a 6 mm (diameter) GF/C filter disk (filter material available from Whatman Inc., Clifton, N.J.) in the bottom of a 4 mL screw-top glass vial and allowed to air dry 24-48 hours. Positive control vials were prepared in the same manner except that no test compounds were dissolved in the DMSO. About 20 newly emerged cat fleas (Ctenocephalides felis) were sedated by refrigeration at 0-4° C. and transferred to each vial. Each vial was sealed with a thin, perforated Teflon™ septum secured by an open top screw cap and held vertically in the dark. After about 24-30 hours, the healthy, moribund, and dead cat fleas in each vial were counted. The percentage of dead cat fleas in each vial was then calculated using the formula M=100(D−(FC/100))/(F−(FC/100)), in which M is the percentage of dead cat fleas due to the addition of the test compound, D is the number of dead cat fleas in the test vial, F is the total number of cat fleas in the test vial, and C is the percentage of dead cat fleas in the control vials.

[3] = system: cat fleas (Ctenocephalides felis), NC Fleas; experiment: In vivo cat flea contact assay, NC fleas; settings: contact with treated filter disk in vial, about 24-30 hours; mM = concentration of the DMSO solution, about 1 μL applied
Protocol: as §1, §2

CC1(C)CCc2nn(-c3c(Cl)cc(C(F)(F)F)cc3Cl)cc21 [Compound 38, 2-[2,6-Dichloro-4-(trifluoromethyl)phenyl]-4,4-dimethyl-2,4,5,6-tetrahydrocyclopenta[c]pyrazole]
Compounds with the most activity (housefly 3H-EBOB binding) (Housefly GABA receptors): most activity | LD50 (mM), Flies [1]: >100 mM | LC50 [2]: 54 mM | LD50 (mM), NC Fleas [3]: 15 mM
